From PubChem BioAssay (NCI)
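At the GI50, growth is halved. TGI is the concentration that stops growth completely.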

Assays:
Experiment in all cases: NCI anticancer screen, dose series, 384-well format
[1] = test system: LOX IMVI melanoma
[2] = test system: MCF7 breast
[3] = test system: A549 NSCLC
[4] = test system: NCI-H23 lung
[5] = test system: PC-3 prostate
[6] = test system: HT29 colon
[7] = test system: SNB-75 CNS
[8] = test system: OVCAR-8 ovarian
[9] = test system: RPMI-8226 leukemia
[10] = test system: HCC-2998 colon
[11] = test system: SR leukemia
[12] = test system: HS 578T breast
[13] = test system: SNB-19 CNS
[14] = test system: CCRF-CEM leukemia
[15] = test system: UACC-257 melanoma
[16] = test system: UACC-62 melanoma
[17] = test system: MDA-MB-435 melanoma
[18] = test system: HCT-15 colon
[19] = test system: SK-OV-3 ovarian
[20] = test system: SK-MEL-28 melanoma
[21] = test system: MDA-MB-468 breast
[22] = test system: SN12C renal
[23] = test system: NCI-H522 lung
[24] = test system: SK-MEL-5 melanoma
[25] = test system: HL-60(TB) leukemia
[26] = test system: IGROV1 ovarian
[27] = test system: OVCAR-5 ovarian
[28] = test system: SW-620 colon
[29] = test system: 786-0 renal
[30] = test system: HOP-92 NSCLC
[31] = test system: CAKI-1 renal
[32] = test system: NCI-H322M lung
[33] = test system: OVCAR-4 ovarian
[34] = test system: MOLT-4 leukemia
[35] = test system: DU-145 prostate
[36] = test system: SF-268 CNS
[37] = test system: K-562 leukemia
[38] = test system: M14 melanoma
[39] = test system: BT-549 breast
[40] = test system: HOP-62 NSCLC
[41] = test system: TK-10 renal
[42] = test system: ACHN renal
[43] = test system: COLO 205 colon
[44] = test system: MALME-3M melanoma
[45] = test system: SF-295 CNS
[46] = test system: KM12 colon
[47] = test system: EKVX NSCLC
[48] = test system: T-47D breast
[49] = test system: NCI-H460 NSCLC
[50] = test system: UO-31 renal
[51] = test system: RXF 393 renal
[52] = test system: MDA-MB-231 breast
[53] = test system: NCI/ADR-RES ovarian
[54] = test system: A498 renal
[55] = test system: SF-539 CNS
[56] = test system: OVCAR-3 ovarian
[57] = test system: NCI-H226 lung

C[C@@H]1COCCN1c1nc(-c2cnc(N)cc2C(F)F)nc(N2[C@H](C)COC[C@@H]2C)n1
GI50 [1]: 99 nM | TGI [1]: 1100 nM | GI50 [2]: 36.6 nM | TGI [2]: 1360 nM | GI50 [3]: 52.9 nM | TGI [3]: 3890 nM | GI50 [4]: 264 nM | TGI [4]: 2600 nM | GI50 [5]: 84.5 nM | TGI [5]: 1960 nM | GI50 [6]: 281 nM | TGI [6]: 2440 nM | GI50 [7]: 54.9 nM | TGI [7]: 2100 nM | GI50 [8]: 165 nM | TGI [8]: 11600 nM | GI50 [9]: 16.6 nM | TGI [9]: 48.5 nM | GI50 [10]: 104 nM | TGI [10]: 1610 nM | GI50 [11]: 32.1 nM | TGI [11]: 131 nM | GI50 [12]: 40.5 nM | TGI [12]: 269 nM | GI50 [13]: 711 nM | TGI [13]: 16100 nM | GI50 [14]: 106 nM | TGI [14]: 1050 nM | GI50 [15]: 316 nM | TGI [15]: 1560 nM | GI50 [16]: 114 nM | TGI [16]: 899 nM | GI50 [17]: 208 nM | TGI [17]: 2570 nM | GI50 [18]: 59 nM | TGI [18]: 1330 nM | GI50 [19]: 53.3 nM | TGI [19]: 595 nM | GI50 [20]: 121 nM | TGI [20]: 1170 nM | GI50 [21]: 54 nM | TGI [21]: 236 nM | GI50 [22]: 95.9 nM | TGI [22]: 10900 nM | GI50 [23]: 128 nM | TGI [23]: 1400 nM | GI50 [24]: 53.8 nM | TGI [24]: 312 nM | GI50 [25]: 466 nM | TGI [25]: 1660 nM | GI50 [26]: 36 nM | TGI [26]: 238 nM | GI50 [27]: 141 nM | TGI [27]: 2280 nM | GI50 [28]: 319 nM | TGI [28]: 11500 nM | GI50 [29]: 116 nM | TGI [29]: 2780 nM | GI50 [30]: 84.9 nM | TGI [30]: 1570 nM | GI50 [31]: 123 nM | TGI [31]: 4840 nM | GI50 [32]: 95.7 nM | TGI [32]: 2970 nM | GI50 [33]: 68.3 nM | TGI [33]: 376 nM | GI50 [34]: 90.3 nM | TGI [34]: 508 nM | GI50 [35]: 143 nM | TGI [35]: 10400 nM | GI50 [36]: 228 nM | TGI [36]: 7710 nM | GI50 [37]: 211 nM | TGI [37]: 1780 nM | GI50 [38]: 117 nM | TGI [38]: 1490 nM | GI50 [39]: 97.7 nM | TGI [39]: 1140 nM | GI50 [40]: 145 nM | TGI [40]: 4220 nM | GI50 [41]: 232 nM | TGI [41]: 4550 nM | GI50 [42]: 81.2 nM | TGI [42]: 2550 nM | GI50 [43]: 152 nM | TGI [43]: 3480 nM | GI50 [44]: 27.1 nM | TGI [44]: 218 nM | GI50 [45]: 41.4 nM | TGI [45]: 369 nM | GI50 [46]: 144 nM | TGI [46]: 3090 nM | GI50 [47]: 122 nM | TGI [47]: 1080 nM | GI50 [48]: 18.7 nM | TGI [48]: 156 nM | GI50 [49]: 38.2 nM | TGI [49]: 1510 nM | GI50 [50]: 290 nM | TGI [50]: 16300 nM | GI50 [51]: 73.2 nM | TGI [51]: 4440 nM | GI50 [52]: 61.4 nM | TGI [52]: 14400 nM | GI50 [53]: 291 nM | TGI [53]: 6440 nM | GI50 [54]: 23.1 nM | TGI [54]: 407 nM | GI50 [55]: 116 nM | TGI [55]: 2450 nM | GI50 [56]: 119 nM | TGI [56]: 10400 nM | GI50 [57]: 75.9 nM | TGI [57]: 656 nM
